Laboratory results: article PMC8199067, “Urolithin and Reduced Urolithin Derivatives as Potent Inhibitors of Tyrosinase and Melanogenesis: Importance of the 4-Substituted Resorcinol Moiety” (International Journal of Molecular Sciences, 2021)
Where “and” joins values, the source holds several entries; their conditions need not be identical. Equal values may be shown once. Read-outs that look alike come from different tables or passages of the source. Each block holds one compound with its values, some of them ahead of it.

Columns and labels:
mushroom tyrosinase [1] = target: T1, mushroom tyrosinase (Agaricus bisporus, UniProt C7FF04); test: Mushroom tyrosinase inhibitory assay (L-tyrosine substrate); assay type: biochemical; conditions: for inhibition at 50 µM / Tyrosinase Inhibition (%): L-tyrosine as substrate, mean ± SEM, NI means no inhibition, 50 μM
Description: The experiment was repeated three times. Mushroom tyrosinase inhibitions % were calculated using:% Inhibition = [1 − (A/B)] × 100(1) where A is the absorbance of the test compound and B is the absorbance of the blank.
Log-linear curves were plotted, and their equations were determined.
Target sequence in this assay (C7FF04 1-392 limits assumed): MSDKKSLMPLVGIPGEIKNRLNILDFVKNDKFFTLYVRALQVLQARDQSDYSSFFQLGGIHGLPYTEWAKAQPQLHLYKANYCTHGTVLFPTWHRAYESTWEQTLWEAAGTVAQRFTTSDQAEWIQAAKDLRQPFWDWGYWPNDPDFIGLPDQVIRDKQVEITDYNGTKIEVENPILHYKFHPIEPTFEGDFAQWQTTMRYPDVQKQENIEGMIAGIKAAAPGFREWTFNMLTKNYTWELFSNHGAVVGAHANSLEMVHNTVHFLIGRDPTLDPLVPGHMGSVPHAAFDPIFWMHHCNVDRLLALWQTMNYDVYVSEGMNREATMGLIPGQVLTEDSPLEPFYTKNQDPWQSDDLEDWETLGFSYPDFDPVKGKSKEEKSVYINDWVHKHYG

mushroom tyrosinase [2] = target: T1, mushroom tyrosinase; test: Kinetic analysis of mushroom tyrosinase inhibition, Lineweaver–Burk plots; assay type: biochemical; conditions: for Mode of tyrosinase inhibition: Lineweaver–Burk analysis, L-tyrosine as substrate
Description: Briefly, 170 μL of a mixture of an aqueous solution of L-[…].0, 2.0, 4.0, or 8.0 mM and 50 mM of potassium phosphate (pH 6.5) was added to a 96-well plate. […] Lineweaver-Burk plots were used to determine Vmax (maximal reaction rates) and KM (Michaelis-Menten constants) of mushroom tyrosinase activities.
Target sequence in this assay (C7FF04 1-392): as the sequence (C7FF04 1-392 limits assumed) above

[3] = EZ-cytox cell viability assay; assay type: cell-based, murine; conditions: mouse, B16F10 melanoma cells, 20 µM
Description: (§1) EZ-cytox assays were performed to examine whether these compounds are cytotoxic.
(§2) B16F10 murine melanoma cells were purchased from the American Type Culture Collection (ATCC, Manassas, VA, USA). Cells were cultured in Dulbecco’s modified Eagle’s medium (10% fetal bovine serum (FBS), and 1% streptomycin) obtained from Gibco/Thermo Fisher Scientific (Carlsbad, CA, USA) at 37 °C in a 5% CO2 environment. These cultured cells were used for cell viability, melanin content, and cellular tyrosinase inhibitory assays.
(§3) EZ-cytox assays were performed on 1c, 1h, and 2a, according to previously described. B16F10 cells were seeded in a 96-well plate at a density of 5 × 10^4 cells/well and incubated at 37 °C in a humidified 5% CO2 atmosphere overnight. Cells were then treated with different concentrations of 1c, 1h, or 2a (0, 1, 2, 5, 10, or 20 µM) and incubated for 24 h under the same conditions. EZ-cytox solution (10 µL) was then added and the plate was incubated for 3 h at 37 °C in a humidified 5% CO2 atmosphere. Optical densities of wells were measured at 450 nm using an ELISA reader. All experiments were independently repeated three times.

B16F10 melanoma cells = test: EZ-cytox cell viability assay; assay type: cell-based, murine; conditions: 1–20 µM, 24 h
Description: as §1, §2, §3

[4] = 1.56 μM, read-out: Average of Inhibition (%)
[5] = 1.56 μM, read-out: Inhibition (%), single determinations
[6] = 3.13 μM, read-out: Average of Inhibition (%)
[7] = 3.13 μM, read-out: Inhibition (%), single determinations
[8] = 6.25 μM, read-out: Average of Inhibition (%)
[9] = 6.25 μM, read-out: Inhibition (%), single determinations
[10] = inhibitor 10 μM, L-tyrosine 1.0–8.0 mM
[11] = not dependent on inhibitor concentration

- inhibition at 50 µM (mushroom tyrosinase [1]): < 0%
Structure (SMILES): COc1ccc2c(c1)oc(=O)c1ccccc12 [Compound 1b, 3-Methoxy-6H-benzo[c]chromen-6-one]

- Inhibition (%), single determinations (mushroom tyrosinase [1]; 1.56 μM): 4.01% and 2.57%
- inhibition at 1.56 µM (mushroom tyrosinase [1]; [4]): 3.06 ± 0.47%
- inhibition at 1.56 µM (mushroom tyrosinase [1]; [5]): 2.61%
- Inhibition (%), single determinations (mushroom tyrosinase [1]; 3.13 μM): 10.84% and 9.94%
- inhibition at 3.13 µM (mushroom tyrosinase [1]; [6]): 10.1 ± 0.37%
- inhibition at 3.13 µM (mushroom tyrosinase [1]; [7]): 9.61%
- Inhibition (%), single determinations (mushroom tyrosinase [1]; 6.25 μM): 25.08% and 33.10%
- inhibition at 6.25 µM (mushroom tyrosinase [1]; [8]): 28.5 ± 2.39%
- inhibition at 6.25 µM (mushroom tyrosinase [1]; [9]): 27.3%
- Inhibition (%), single determinations (mushroom tyrosinase [1]; 12.50 μM, 12.5 µM): 45.18% and 48.37%
- inhibition at 12.5 µM (mushroom tyrosinase [1]; 12.50 μM, read-out: Average of Inhibition (%)): 45.8 ± 1.37%
- inhibition at 12.5 µM (mushroom tyrosinase [1]; 12.50 μM, read-out: Inhibition (%), single determinations): 43.7%
- Inhibition (%), single determinations (mushroom tyrosinase [1]; 25.00 μM): 61.85%
- inhibition at 25 µM (mushroom tyrosinase [1]; 25.00 μM, read-out: Average of Inhibition (%)): 61.21 ± 0.32%
- inhibition at 25 µM (mushroom tyrosinase [1]; 25.00 μM, read-out: Inhibition (%), single determinations): 60.9%
- Tyrosinase Inhibition (%) (mushroom tyrosinase [1]): 68.93 ± 0.67%
- inhibition at 50 µM (mushroom tyrosinase [1]): 69%
- IC50 (mushroom tyrosinase [1]; mushroom tyrosinase, L-tyrosine, read-out: IC50): 18.1 ± 0.25 µM
- Mode of tyrosinase inhibition (mushroom tyrosinase [2]): competitive inhibitors
- Vmax (mushroom tyrosinase [2]; [10]): 0.027 mM/min
- Vmax (mushroom tyrosinase [2]; inhibitor 20 μM, L-tyrosine 1.0–8.0 mM): 0.027 mM/min
- Vmax (mushroom tyrosinase [2]; inhibitor 40 μM, L-tyrosine 1.0–8.0 mM): 0.027 mM/min
- Vmax (mushroom tyrosinase [2]; [11]): 0.027 mM/min
Structure (SMILES): O=c1oc2cc(O)cc(O)c2c2ccccc12 [Compound 1c, 1,3-Dihydroxy-6H-benzo[c]chromen-6-one]
- viability at 24 h, 20 µM [3]: 71.4%
- Cytotoxic effect (B16F10 melanoma cells): weakly cytotoxic

- inhibition at 50 µM (mushroom tyrosinase [1]): < 0%
Structure (SMILES): COc1cc(OC)c2c(c1)oc(=O)c1ccccc12 [Compound 1d, 1,3-Dimethoxy-6H-benzo[c]chromen-6-one]

- Tyrosinase Inhibition (%) (mushroom tyrosinase [1]): 12.68 ± 6.09%
- inhibition at 50 µM (mushroom tyrosinase [1]): 13%
Structure (SMILES): O=c1oc2cc(O)cc(O)c2c2ccc(O)cc12 [Compound 1f, 1,3,8-Trihydroxy-6H-benzo[c]chromen-6-one]

- inhibition at 50 µM (mushroom tyrosinase [1]): < 0%
Structure (SMILES): COc1ccc2c(c1)c(=O)oc1cc(O)ccc12 [Compound 1g, 3-Hydroxy-8-methoxy-6H-benzo[c]chromen-6-one]

Structure (SMILES): COc1ccc2c(c1)c(=O)oc1cc(O)cc(O)c12 [Compound 1h, 1,3-Dihydroxy-8-methoxy-6H-benzo[c]chromen-6-one]
- IC50 (mushroom tyrosinase [1]): 4.14 ± 0.1 µM
- Inhibition (%), single determinations (mushroom tyrosinase [1]; 0.78 μM): 15.61% and 18.94%
- inhibition at 0.78 µM (mushroom tyrosinase [1]; 0.78 μM, read-out: Average of Inhibition (%)): 16.7 ± 1.1%
- inhibition at 0.78 µM (mushroom tyrosinase [1]; 0.78 μM, read-out: Inhibition (%), single determinations): 15.7%
- Inhibition (%), single determinations (mushroom tyrosinase [1]; 1.56 μM): 24.63% and 31.11%
- inhibition at 1.56 µM (mushroom tyrosinase [1]; [4]): 28 ± 1.88%
- inhibition at 1.56 µM (mushroom tyrosinase [1]; [5]): 28.3%
- Inhibition (%), single determinations (mushroom tyrosinase [1]; 3.13 μM): 48.92%
- inhibition at 3.13 µM (mushroom tyrosinase [1]; [6]): 48.78 ± 0.07%
- inhibition at 3.13 µM (mushroom tyrosinase [1]; [7]): 48.7%
- Inhibition (%), single determinations (mushroom tyrosinase [1]; 6.25 μM): 63.95% and 66.79%
- inhibition at 6.25 µM (mushroom tyrosinase [1]; [8]): 64.9 ± 0.94%
- inhibition at 6.25 µM (mushroom tyrosinase [1]; [9]): 64%
- Tyrosinase Inhibition (%) (mushroom tyrosinase [1]): 94.86 ± 0.16%
- inhibition at 50 µM (mushroom tyrosinase [1]): 95%
- Mode of tyrosinase inhibition (mushroom tyrosinase [2]): competitive inhibitors
- Vmax (mushroom tyrosinase [2]; inhibitor 2.5 μM, L-tyrosine 1.0–8.0 mM): 0.031 mM/min
- Vmax (mushroom tyrosinase [2]; inhibitor 5 μM, L-tyrosine 1.0–8.0 mM): 0.031 mM/min
- Vmax (mushroom tyrosinase [2]; [10]): 0.031 mM/min
- Vmax (mushroom tyrosinase [2]; [11]): 0.031 mM/min
- viability at 24 h, 20 µM [3]: 70.8%
- Cytotoxic effect (B16F10 melanoma cells): weakly cytotoxic

- inhibition at 50 µM (mushroom tyrosinase [1]): < 0%
Structure (SMILES): COc1ccc2c(c1)oc(=O)c1cc(OC)ccc12 [Compound 1i, 3,8-Dimethoxy-6H-benzo[c]chromen-6-one]

- inhibition at 50 µM (mushroom tyrosinase [1]): < 0%
Structure (SMILES): COc1cc(OC)c2c(c1)oc(=O)c1cc(OC)ccc12 [Compound 1j, 1,3,8-Trimethoxy-6H-benzo[c]chromen-6-one]
